# Measurements published in patent US8609332B2, “Assay” (Queen's University of Belfast, priority 2006, dated 2013).
# What was measured:
# [1] = at 50 μM; cited from earlier work
# [2] = tested on: ser473 phosphorylated Akt; assay: AKT phosphorylation immunoblot; assay type: cell-based, rat
# Method: FIG. 5C Immunodetection and LY290042-inhibition of phosphorylated Akt in parental R37, R37-CMV, R37-OPN and R37-RAN cells. 20 μg cell lysates were loaded onto a SDS 10% (W(W) polyacrylamide gel as follows: lane 1 R37, lane 2 R37-pBk-CMV; lane 3 R37-RAN, lane 4 R37-OPN; lane 5 R37-OPN treated with 50 μm LY290042 for 18 hr (R37-OPN/LY); and lane 6 R37-RAN treated with 50 μm LY290042 for 18 hr (R37-RAN/LY). Proteins were detected in immunoblots using specific antibodies to phosphoserine 473 AkT. Bands were quantified using densitometric analysis and quantified with respect to those of β-actin. The results were a representative sample of three experiments. The average fold increase for 3 different experiments for phosphorylated AkT on ser473 is: lane 1=1, lane 2=2.2±0.4, lane 3=22.5±0.7, lane 4=21.1±0.5, lane 5=0±0 and lane 6=0±0.
# The R37, R37-CMV, R37-RAN and R37-OPN cells were harvested at 80% confluence from 7 cm dishes. The cell were lysed in 300 μl of 2× Loading buffer (20% glycerol (v/v), 4% SDS (w/v), 10% 2-mercaptoethanol (v/v), 126 mM Tris, pH 6.8 and coloured with bromophenol blue). The lysates were sonicated, boiled at 100° C. for 5 minutes and then centrifuged at 15000 rpm for 10 minutes. Proteins were resolved by 7.5% SDS-PAGE and immunoblofted for ser473 phosphorylated Akt.as previously (43).
smiles,measurement,setting,value
"O=c1cc(N2CCOCC2)oc2c(-c3ccccc3)cccc12 [LY294002, 2-4(4-morpholinyl)-8-phenyl-4H-1-benzopyran-4-one]",induction of apoptosis,[1],without inducing apoptosis
same,"phosphorylated AkT on ser473, average fold increase (R37 = 1)",[2]; R37-OPN cells treated with 50 μm for 18 hr (lane 5),0±0 fold
same,"phosphorylated AkT on ser473, average fold increase (R37 = 1)",[2]; R37-RAN cells treated with 50 μm for 18 hr (lane 6),0±0 fold
